Reference: patent US20240025862A1, “SUBSTITUTED N-PHENYLURACILS AND SALTS THEREOF, AND USE THEREOF AS HERBICIDAL ACTIVE SUBSTANCES” (Bayer Aktiengesellschaft, priority 2020, published 2024)

Tests used:
Format in all cases: in vivo
Setaria viridis (SETVI) = assay: Post-emergence herbicidal action, greenhouse pot test (also comparative test C); conditions: for Post-emergence action against SETVI: 20 g/ha
Procedure: (§1) Seeds of monocotyledonous and dicotyledonous weeds and crop plants were placed in sandy loam in plastic or wood-fiber pots, covered with soil and cultivated in a greenhouse under controlled growth conditions. 2 to 3 weeks after sowing, the test plants were treated at the one-leaf stage. The compounds of the invention, formulated in the form of wettable powders (WP) or as emulsion concentrates (EC), were then sprayed onto the green parts of the plants as aqueous suspension or emulsion with addition of 0.5% additive at a water application rate of 600 l/ha (converted). After the test plants had been kept in the greenhouse under optimum growth conditions for about 3 weeks, the activity of the preparations was rated visually in comparison to untreated controls. For example, 100% activity=the plants have died, 0% activity=like control plants.
(§2) Tables A1 to A14 below show the effects of selected compounds of the general formula (I) according to Tables I.1 to I.33 on various harmful plants and at an application rate corresponding to 20 g/ha and less, which were obtained by the experimental method specified above. The appendices “a”, “b” and “c” give differentiation by different dosage with otherwise the same harmful plants tested.
(§3) C. Comparative Herbicidal Action and Crop Plant Compatibility of Two Inventive Compounds (I.7-1 and I.7-115) with a Compound of Similar Structure Known from the Literature (WO2002/098227, a-17 and EP1106607, 3-14) in Post-Emergence Treatment.
(§4) Tables C1-C4 below show the effects of two inventive compounds (I.7-1 and I.7-115) together with a compound of similar structure known from the literature (a-17 in WO2002/098227, and 3-14 in EP1106607) in different crop plants at an application rate corresponding to 5 g/ha or less, which have been obtained by the aforementioned experimental procedure.

[1] = system: Matricaria inodora (MATIN); assay: as above
Procedure: as §1, §2, §3, §4

[2] = system: Alopecurus myosuroides (ALOMY); assay: as above; conditions: for Post-emergence action at 20 g/ha against ALOMY in %: rated visually after about 3 weeks vs untreated controls, 100% = plants have died; for ALOMY (efficacy in %): comparative test C, application rate 5 g/ha
Procedure: as §1, §2, §3, §4

[3] = system: Echinochloa crus-galli (ECHCG); assay: as above; conditions: for Post-emergence action at 1.25 g/ha against ECHCG in %: rated visually after about 3 weeks vs untreated controls, 100% = plants have died
Procedure: as §1, §2, §3, §4

[4] = system: Pharbitis purpurea (PHBPU); assay: Post-emergence herbicidal action, greenhouse pot test
Procedure: as §1, §2

[5] = system: Abutilon theophrasti (ABUTH); assay: as above; conditions: rated visually after about 3 weeks vs untreated controls, 100% = plants have died
Procedure: as §1, §2

[6] = system: Polygonum convolvulus (POLCO); assay: as above
Procedure: as §1, §2

Veronica persica (VERPE) = assay: as above
Procedure: as §1, §2

Viola tricolor (VIOTR) = assay: as above
Procedure: as §1, §2

[7] = system: Amaranthus retroflexus (AMARE); assay: as above; conditions: rated visually after about 3 weeks vs untreated controls, 100% = plants have died
Procedure: as §1, §2

Oryza sativa (ORYSA) = assay: Post-emergence crop plant compatibility, greenhouse pot test (also comparative test C); conditions: for Post-emergence action against ORYSA (crop plant compatibility): vs untreated controls; for Post-emergence action against ORYSA in %: 20 g/ha
Procedure: as §1
(§5) The observed effects on selected crop plants are reported here in comparison to the untreated controls (values in %). The appendices “a”, “b” and “c” give differentiation by different dosage with otherwise the same crop plants tested.
as §3

[8] = system: Triticum aestivum (TRZAS); assay: Post-emergence crop plant compatibility, greenhouse pot test; conditions: vs untreated controls
Procedure: as §1, §5

[9] = comparative test C, application rate 1.25 g/ha

| SMILES | Post-emergence action against SETVI (Setaria viridis (SETVI)) | Post-emergence action against SETVI in % (Setaria viridis (SETVI); dosage 1.25 g/ha) | Post-emergence action against SETVI in % (Setaria viridis (SETVI); dosage 5 g/ha) | Post-emergence action against MATIN in % ([1]; dosage 5 g/ha) | Post-emergence action against MATIN in % ([1]; dosage 20 g/ha) | Post-emergence action at 20 g/ha against ALOMY in % [2] | Post-emergence action against ECHCG in % ([3]; dosage 20 g/ha) | Post-emergence action against PHBPU in % ([4]; dosage 1.25 g/ha) | Post-emergence action against PHBPU in % ([4]; dosage 5 g/ha) | Post-emergence action against PHBPU in % ([4]; dosage 20 g/ha) | Post-emergence action at 1.25 g/ha against ABUTH in % [5] | Post-emergence action at 5 g/ha against ABUTH in % [5] | Post-emergence action at 20 g/ha against ABUTH in % [5] | Post-emergence action against POLCO in % ([6]; dosage 20 g/ha) | Post-emergence action against VERPE (Veronica persica (VERPE); 1.25 g/ha) | Post-emergence action against VERPE (Veronica persica (VERPE); 5 g/ha) | Post-emergence action against VERPE (Veronica persica (VERPE); 20 g/ha) | Post-emergence action against VIOTR (Viola tricolor (VIOTR); 1.25 g/ha) | Post-emergence action against VIOTR (Viola tricolor (VIOTR); 5 g/ha) | Post-emergence action against VIOTR (Viola tricolor (VIOTR); 20 g/ha) | further results |
| --- | --- | --- | --- | --- | --- | --- | --- | --- | --- | --- | --- | --- | --- | --- | --- | --- | --- | --- | --- | --- | --- |
| COCCOCCOC(=O)COc1ccccc1Oc1cc(-n2c(=O)cc(C(F)(F)F)n(C)c2=O)c(F)cc1C#N [I.9-23] | 100% | 100% | 100% | 80% | 100% | 80% | 100% | 80% | 100% | 100% | 80% | 100% | 100% | 100% | 80% | 100% | 100% | 100% | 100% | 100% | Post-emergence action against POLCO in % ([6]; dosage 5 g/ha): 100%; Post-emergence action at 1.25 g/ha against AMARE in % [7]: 100%; Post-emergence action at 5 g/ha against AMARE in % [7]: 100%; Post-emergence action at 20 g/ha against AMARE in % [7]: 100%; Post-emergence action against ORYSA (crop plant compatibility) (Oryza sativa (ORYSA); 1.25 g/ha): 0%; Post-emergence action against ORYSA (crop plant compatibility) (Oryza sativa (ORYSA); 5 g/ha): 0%; Post-emergence action against ORYSA in % (Oryza sativa (ORYSA); crop plant compatibility): 20%; Post-emergence action against TRZAS (crop plant compatibility) ([8]; 1.25 g/ha): 0%; Post-emergence action against TRZAS (crop plant compatibility) ([8]; 5 g/ha): 20%; Post-emergence action against TRZAS (crop plant compatibility) ([8]; 20 g/ha): 20% |
| CCCCOC(=O)COc1ccccc1Oc1cc(-n2c(=O)cc(C(F)(F)F)n(C)c2=O)c(F)cc1Cl [drawing 112] |  |  |  |  |  |  |  |  |  |  |  |  |  |  |  |  |  |  |  |  | ALOMY (efficacy in %) [2]: 30% |
| Cn1c(C(F)(F)F)cc(=O)n(-c2cc(Oc3cc(F)ccc3OCC(=O)OCc3ccccn3)c(Cl)cc2F)c1=O [I.23-276] | 100% | 100% | 100% |  | 90% | 100% | 100% | 90% | 100% | 100% | 90% | 100% | 100% | 100% | 80% | 100% | 100% | 80% | 100% | 100% | Post-emergence action at 1.25 g/ha against ECHCG in % [3]: 100%; Post-emergence action against ECHCG in % ([3]; dosage 5 g/ha): 100%; Post-emergence action at 1.25 g/ha against AMARE in % [7]: 90%; Post-emergence action at 5 g/ha against AMARE in % [7]: 100%; Post-emergence action at 20 g/ha against AMARE in % [7]: 100%; Post-emergence action against ORYSA (crop plant compatibility) (Oryza sativa (ORYSA); 1.25 g/ha): 0%; Post-emergence action against ORYSA (crop plant compatibility) (Oryza sativa (ORYSA); 5 g/ha): 10%; Post-emergence action against ORYSA in % (Oryza sativa (ORYSA); crop plant compatibility): 10%; Post-emergence action against TRZAS (crop plant compatibility) ([8]; 1.25 g/ha): 20%; Post-emergence action against TRZAS (crop plant compatibility) ([8]; 5 g/ha): 20% |
| Cn1c(C(F)(F)F)cc(=O)n(-c2cc(Oc3ccccc3OCC(=O)OCC3CCCO3)c(Cl)cc2F)c1=O (racemic) [Example 1.7-71] |  |  |  | 100% |  |  |  |  |  |  |  |  |  |  |  |  |  |  |  |  |  |
| CCCCOC(=O)COc1ccccc1Oc1cc(-n2c(=O)cc(C(F)(F)F)n(C)c2=O)c(F)cc1Cl [a-17, reference compound] |  |  |  |  |  |  |  |  |  |  |  |  |  |  |  |  |  |  |  |  | SETVI (efficacy in %) (Setaria viridis (SETVI); [9]): 80%; MATIN (efficacy in %) [1, 9]: 30%; ECHCG (efficacy in %) [3, 9]: 60%; ORYSA (efficacy in %) (Oryza sativa (ORYSA); comparative test C, application rate 1.25 g/ha, crop plant compatibility): 20% |
| Cn1c(C(F)(F)F)cc(=O)n(-c2cc(Oc3ccccc3OCC(=O)OC3COC3)c(Cl)cc2F)c1=O [drawing 111] |  |  |  |  |  |  |  |  |  |  |  |  |  |  |  |  |  |  |  |  | ALOMY (efficacy in %) [2]: 100% |
| COCCOC(=O)COc1ccccc1Oc1cc(-n2c(=O)cc(C(F)(F)F)n(C)c2=O)c(F)cc1Cl [drawing 110] |  |  |  |  |  |  |  |  |  |  |  |  |  |  |  |  |  |  |  |  | ALOMY (efficacy in %) [2]: 80% |
| COCCOC(=O)COc1cccc(F)c1Oc1cc(-n2c(=O)cc(C(F)(F)F)n(C)c2=O)c(F)cc1Cl [I.19-1] | 100% | 100% | 100% | 90% | 100% | 100% | 100% | 100% | 100% | 100% | 100% | 100% | 100% | 100% | 100% | 100% | 100% | 100% | 100% | 100% | Post-emergence action at 1.25 g/ha against ECHCG in % [3]: 100%; Post-emergence action against ECHCG in % ([3]; dosage 5 g/ha): 100%; Post-emergence action against POLCO in % ([6]; dosage 5 g/ha): 100%; Post-emergence action at 1.25 g/ha against AMARE in % [7]: 100%; Post-emergence action at 5 g/ha against AMARE in % [7]: 100%; Post-emergence action at 20 g/ha against AMARE in % [7]: 100%; Post-emergence action against TRZAS (crop plant compatibility) ([8]; 1.25 g/ha): 20% |
